Several values for one entry are separate records, joined by “and”; a condition that tells them apart may be missing. Identical values can stand only once. Like-named read-outs stand apart in the source and are kept apart here.
Columns and labels:
Assay type in all cases: cell-based
DU-145 cells = assay: Prostate cancer cell line growth inhibition assay, DU-145; details: read-out: DU145 GI50 (AR−)
Experimental: (§1) The PC-3, DU-145, LNCaP, C4–2, and 22Rv1 PC cell line growth inhibition assays have been described previously. On day 1, each PC cell line was harvested, counted, and seeded into two 384-well assay plates, a time zero (T0) and a time 72 h (T72) plate. PC cell lines were all seeded at 1000 cells per well in 45 μL of tissue culture media in uncoated white clear bottom 384-well assay plates (VWR, # 82050–076) using a Matrix electronic multichannel pipette (Thermo Fisher Scientific, Waltham, MA) and cultured overnight at 37 °C, 5% CO2, and 95% humidity. On day 2, 25 μL of the Cell Titer Glo (CTG) (Promega Corporation, Madison, WI) detection reagent was dispensed into the wells of the T0 assay plate using a Matrix electronic multichannel pipette, and the RLUs were captured on the SpectraMax M5e (Molecular Devices LLC, Sunnyvale, CA) microtiter plate reader. Also on day 2, 5 μL of compounds were transferred into the test wells of the T72 384-well assay plates which were returned to the incubator for 72 h. Control wells received DMSO alone. On day 5, 25 μL of the CTG detection reagent was dispensed into the wells of the T72 assay plate using a Matrix electronic multichannel pipette, and the RLU’s were captured on the SpectraMax M5e microtiter plate reader platform.
(§2) In 384-well assays, DMSO minimum (n = 32) and maximum (n = 32) plate control wells were utilized to calculate signal-to-background ratios (S:B) and Z’-factor coefficient assay performance quality control statistics, and to normalize the signals of compound treated wells and to represent 0% and 100% respectively. For the 96-well AR-LBD H^3-DHT radioligand binding assay, eight minimum and maximum plate control wells were utilized to normalize the data. For the PC cell line growth inhibition assays we used the DMSO control data from the T0 and T72 assay plates to assess the dynamic range of the T0 to T72 cell growth, and to calculate S:B ratios and Z’-factor coefficient statistics for the assay signal window (T0 to T72). To normalize the 72 h compound exposure PC growth inhibition data, the signals from the compound treated wells were processed and expressed as% of the T72 DMSO plate controls. IC50 and GI50 values for each of the bioassays were calculated using Graph-Pad Prism 9 software to plot and fit data to curves using the Sigmoidal dose response variable slope equation Y = Bottom + [Top-Bottom]/ [1 + 10^^(LogEC50-X)*HillSlope].

PC-3 cells = assay: Prostate cancer cell line growth inhibition assay, PC-3; details: read-out: PC3 GI50 (AR−)
Experimental: as §1, §2

AR-TIF2 PPI [1] = target: T1, AR-TIF2 PPI (Homo sapiens, UniProt P10275); assay: AR-TIF2 PPI biosensor (PPIB) HCS assay, disruption of pre-formed AR-TIF2 PPI complexes; details: U-2 OS cells, 25 nM DHT 90 min prior to compounds for 3 h
T1 construct: expressed in transfected cells; host or cells: U-2 OS osteosarcoma cells, co-infected with recombinant adenoviruses
T1 sequence (P10275 663-920 limits assumed): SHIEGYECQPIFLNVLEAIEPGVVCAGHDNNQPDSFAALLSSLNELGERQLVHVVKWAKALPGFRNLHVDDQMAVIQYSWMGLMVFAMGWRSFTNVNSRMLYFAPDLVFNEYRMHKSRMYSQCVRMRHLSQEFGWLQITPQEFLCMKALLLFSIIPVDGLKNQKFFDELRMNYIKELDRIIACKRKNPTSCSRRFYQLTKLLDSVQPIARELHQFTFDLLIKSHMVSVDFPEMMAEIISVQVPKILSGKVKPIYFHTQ
Experimental: (§3) Daughter plates containing 2 μL of the serially diluted compounds in DMSO were prepared and replicated from 384-well serial dilution master plates using a Janus MDT platform outfitted with a 384-well transfer head. Aluminum adhesive plate seals were applied, and plates were stored at −20 °C. For bioassay testing, daughter plates were withdrawn from −20 °C storage, thawed to ambient temperature, and centrifuged for 1 min at 100 × g, and plate seals were removed before 38 μL of serum-free media (SFM) was transferred into wells using a Matrix pipettor (ThermoFisher, Waltham, MA), to generate an intermediate stock concentration of validation compounds ranging from 0.977 to 500 μM (5.0% DMSO). Diluted compounds were mixed by repeated aspiration and dispensation using a 384-well P30 dispensing head on the Janus MDT platform and then, 5 μL of diluted compounds was transferred to assay plate wells to provide a final concentration range from 0.0977 to 50 μM (0.5% DMSO).
(§4) The AR-TIF2 PPIB HCS assay was performed in U-2 OS osteosarcoma cells as described previously. Briefly, U-2 OS cells were coinfected with recombinant adenovirus biosensor expression constructs and seeded at 2500 cells per well in 384-well collagen-coated microplates (Greiner BioOne #781956) and plates were incubated overnight at 37°C in 5% CO2 and 95% humidity. […] After the appropriate time, assay plates were fixed by transfer of 50 μL of pre-warmed (37°C) 7.4% formaldehyde and 2 μg/mL Hoechst 33342 in PBS and incubation at room temperature for 30 min. Liquid was aspirated, plates were washed twice with 85 μL PBS, leaving the final wash in the plate. Plates were sealed with adhesive aluminum plate seals, and fluorescent images of three fields of view were acquired in the DAPI (Hoechst stained nuclei), FITC (TIF2-GFP) and Texas Red (AR-RFP) channels on an ImageXpress Micro (IXM) automated HCS platform (Molecular Devices LLC, Sunnyvale, CA) using a 10X Plan Fluor 0.3 NA objective. Images were analyzed using the Translocation Enhanced (TE) image analysis module of the MetaXpress software as described previously.
as §2

22Rv1 cells = assay: Prostate cancer cell line growth inhibition assay, 22Rv1; details: read-out: 22Rv1 GI50 (AR+)
Experimental: as §1, §2

LNCaP cells = assay: Prostate cancer cell line growth inhibition assay, LNCaP; details: 72 h, read-out: LNCap GI50 (AR+)
Experimental: as §1, §2

[2] = M2H viability counter screen; details: human, HEK 293 cells; cytotoxicity counter screen; read-out: M2H viability CS GI50
[3] = tested on: PC cell lines positive (LNCaP, C4–2, & 22Rv1 cells) or negative (PC-3 & DU-145) for AR; assay: Prostate cancer cell line growth inhibition assays, panel statements; details: 72 h
Experimental: as §1, §2

C4–2 cells = assay: Prostate cancer cell line growth inhibition assay, C4–2; details: read-out: C4–2 GI50 (AR +)
Experimental: as §1, §2

AR-TIF2 PPI [4] = target: T1, AR-TIF2 PPI; assay: AR-TIF2 PPI biosensor (PPIB) HCS assay, inhibition of DHT-induced AR-TIF2 PPI formation; details: for IC50: U-2 OS cells, compounds 3 h prior to 25 nM DHT for 90 min
Experimental: as §3, §4, §2

[5] = PC-3-ARV7-GFP viability counter screen; details: human, PC3-AR-V7-GFP cells; cytotoxicity counter screen; read-out: PC-3-ARV7-GFP viability CS GI50
[6] = LNCaP, C4–2, 22Rv1, read-out: GI50s in AR positive PC cell lines

SMILES	GI50 (DU-145 cells; Homo sapiens, DU-145, 72 h)	GI50 (PC-3 cells; 72 h)	GI50 (PC-3 cells; Homo sapiens, PC-3, 72 h)	IC50 (AR-TIF2 PPI [1])	GI50 (22Rv1 cells; Homo sapiens, 22Rv1, 72 h)	GI50 (LNCaP cells; Homo sapiens, LNCaP)	GI50 [3, 6]	GI50 (C4–2 cells; C4-2, 72 h)	IC50 (AR-TIF2 PPI [4])	GI50 (DU-145 cells; 72 h)	IC50 (AR-TIF2 PPI [1]; listed as S1-3)	GI50 (22Rv1 cells; 72 h)	GI50 (LNCaP cells)	GI50 (C4–2 cells; 72 h)	GI50 ([3]; Homo sapiens, PC-3, DU-145, read-out: GI50s in AR negative PC cell lines)	Reduction in relative potency versus parent hit in AR-TIF2 PPIB assay formats (AR-TIF2 PPI [4]; S1 analogs vs S1–1, S3–15 vs S3–14)	GI50 [2]	GI50 [5]	Cytotoxicity in AR positive relative to AR negative PC cell lines [3]
Cc1ccccc1-c1cc(O)c2c(c1)CN(c1nc(C(N)=O)cs1)CCO2 [S1–1]	> 100 µM	70.3 µM	70 µM	26.6 µM	55.5 µM	28.9 µM	29 to 56 µM	31.7 µM	5.64 µM								58.6 µM	> 100 µM	
Cc1nsc(NC(=O)N2CCC(Sc3ccccc3C)CC2)n1 [S2–6]	> 100 µM		> 100 µM	5.8 µM	17.6 µM	19.2 µM	14 to 19 µM	14.1 µM	1.06 µM						> 100 µM		> 100 µM	> 100 µM	exhibited differential cytotoxicity in AR positive PC cell lines
Cc1c(-c2ccccc2F)[nH]c2ccc(CNC(=O)CCc3cn[nH]c3)cc12 [S3–11]	18 µM		32.6 µM	29.1 µM	15 µM	7.41 µM		7.93 µM	3.25 µM and 3.2 µM								69.2 µM	> 100 µM	exhibited differential cytotoxicity in AR positive PC cell lines relative to AR negative cell lines
Cc1c(-c2ccccc2F)[nH]c2ccc(CNC(=O)CCc3cnccn3)cc12 [S3–12]	6.82 µM		18.4 µM	26.7 µM	20.5 µM	1.92 µM		1.92 µM	4.24 µM								> 100 µM	> 100 µM	roughly equipotent against all 5 PC cell lines
CC(=O)NCCC(=O)NCc1ccc2[nH]c(-c3ccccc3F)c(C)c2c1 [S3–13]	> 100 µM		> 100 µM	41.3 µM	> 100 µM	67.2 µM		69.8 µM	7.16 µM								> 100 µM	> 100 µM	roughly equipotent against all 5 PC cell lines

Now from value to molecule, other results behind:

GI50 (DU-145 cells; Homo sapiens, DU-145, 72 h)	GI50 (PC-3 cells; 72 h)	GI50 (PC-3 cells; Homo sapiens, PC-3, 72 h)	IC50 (AR-TIF2 PPI [1])	GI50 (22Rv1 cells; Homo sapiens, 22Rv1, 72 h)	GI50 (LNCaP cells; Homo sapiens, LNCaP)	GI50 [3, 6]	GI50 (C4–2 cells; C4-2, 72 h)	IC50 (AR-TIF2 PPI [4])	GI50 (DU-145 cells; 72 h)	IC50 (AR-TIF2 PPI [1]; listed as S1-3)	GI50 (22Rv1 cells; 72 h)	GI50 (LNCaP cells)	GI50 (C4–2 cells; 72 h)	GI50 ([3]; Homo sapiens, PC-3, DU-145, read-out: GI50s in AR negative PC cell lines)	Reduction in relative potency versus parent hit in AR-TIF2 PPIB assay formats (AR-TIF2 PPI [4]; S1 analogs vs S1–1, S3–15 vs S3–14)	SMILES	GI50 [2]	GI50 [5]	Cytotoxicity in AR positive relative to AR negative PC cell lines [3]
	> 100 µM		63.1 µM					30.5 µM	> 100 µM	63 µM	75.2 µM	43.4 µM	45.5 µM			Cc1ccccc1-c1cc(O)c2c(c1)CN(c1nccs1)CCO2 [S1–3]			exhibited differential cytotoxicity in AR positive PC cell lines
> 100 µM		> 100 µM	18 µM	102 µM	31.1 µM		33 µM	2.13 µM								Cc1c(-c2ccccc2F)[nH]c2ccc(CNC(=O)c3ccc(CO)o3)cc12 [S3–14]	> 100 µM	> 100 µM	exhibited differential cytotoxicity in AR positive PC cell lines relative to AR negative cell lines
24.3 µM		23.7 µM	26.2 µM	17.4 µM	14 µM		16.8 µM	5.11 µM							~ 2 fold	Cc1c(-c2ccc(F)cc2)[nH]c2ccc(CNC(=O)c3ccc(CO)o3)cc12 [S3–15]	> 100 µM	> 100 µM	roughly equipotent against all 5 PC cell lines

From paper PMC12366525, “Characterization of allosteric modulators that disrupt androgen receptor co-activator protein-protein interactions to alter transactivation–Drug leads for metastatic castration resistant prostate cancer” (SLAS discovery : advancing life sciences R & D, 2023)
